Experimental data taken from US20240156795A1, “METHODS AND COMPOSITIONS FOR THE TREATMENT OF DRUG RESISTANT TOPICAL INFECTIONS” (Lankenau Institute for Medical Research, priority 2020, published 2024).
“And” between values parts separate entries of the source, which are not always exact repeats. Equal entries are not always repeated.

How the values were obtained:
[1] = i.v. infusion of >50% solutions, cardiac surgery trial (Bennett-Guerrero et al., 2009); cited from earlier work
HIF1 = HIF1 stabilization in cells from B6 HIF-luciferase reporter mice, assayed ex vivo; type: cell-based, mouse
Description: Cells derived from B6 HIF-luciferase reporter mice were assayed ex vivo to detect the stabilization of HIF1 protein. Values are means of duplicate determinations ±SD. In the course of studies of inhibitors of proline hydroxylase-domain protein (PHD), an enzyme regulating cellular HIF1 levels, we observed that 10 μM ciclopirox enhanced the readout by 15-fold (screening data not shown). […] The details for the assay protocol are published elsewhere.

IDO1 = target: T1, IDO1 (Homo sapiens, UniProt P14902); assay: IDO1 activity in U937 cells, kynurenine formation after IFN-γ induction; type: cell-based; details: IFN-γ induced, FIG. 2, read-out: IC50 for IDO inhibition in a cellular assay
T1 construct: endogenous in cells; host or cells: U937 cells, induced with IFN-γ
Description: IDO1 activity in U937 cells was assessed by spectrophotometric measurement of kynurenine formation in the medium at least 24 hours post-induction with IFN-γ. Values are means of duplicate determinations ±SD.
The IDOL enzyme was first recognized as an antimicrobial. The approved topical formulant ethyl pyruvate (EP) can also blunt IDO levels and reverse immunosuppression in the setting of cancer to enable immune eradication. […] This is finding is not previously reported in the literature. The details of the assay protocol are published elsewhere.

Trichophyton rubrum = details: seven strains of Trichophyton rubrum; reported by others [28]; cited from earlier work
onychomycosis = details: topical treatment of toenail fungus; cited from earlier work

T1 sequence (P14902 whole entry): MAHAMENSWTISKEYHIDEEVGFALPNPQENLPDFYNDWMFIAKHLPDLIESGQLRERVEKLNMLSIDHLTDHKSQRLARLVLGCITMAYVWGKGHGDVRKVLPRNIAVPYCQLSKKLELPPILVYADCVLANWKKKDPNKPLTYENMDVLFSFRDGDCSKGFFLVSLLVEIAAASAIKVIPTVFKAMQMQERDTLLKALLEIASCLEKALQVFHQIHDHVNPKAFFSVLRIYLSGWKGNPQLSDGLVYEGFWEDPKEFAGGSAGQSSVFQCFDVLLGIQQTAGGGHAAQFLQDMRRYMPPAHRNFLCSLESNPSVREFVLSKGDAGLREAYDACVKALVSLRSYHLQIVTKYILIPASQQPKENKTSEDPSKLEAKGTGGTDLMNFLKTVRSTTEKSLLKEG

In the case of `CCOC(=O)C(C)=O` [EP, ethyl pyruvate], the toxicity in humans [1] is listed as “No significant toxicities were reported”.

For `Cc1cc(C2CCCCC2)n(O)c(=O)c1` [ciclopirox, ciclopirox olamine], the “enhancement of HIF readout” value (HIF1; 10 μM ciclopirox, screening data not shown) was 15 fold, the EC50 (HIF1; Mus musculus, follow-up study, FIG. 1, read-out: apparent EC50 for HIF level stimulation) was 5 µM and the “maximal stimulation of HIF levels over the solvent control” value (HIF1; follow-up study, FIG. 1) was about 35 fold. For the same molecule, the IC50 (IDO1) was about 2 µM, the “average MIC concentration” value (Trichophyton rubrum) was ~16 μg/ml and ~77 μM and the “efficacy for complete clinical cure” value (onychomycosis) was at most 12%.

In the case of `OB1OCc2cc(F)ccc21` [Kerydin, tavarborole], the “efficacy for complete clinical cure” value (onychomycosis) is listed as at most 10%.

In the case of `C=C1CCN([C@H](C)[C@](O)(Cn2cncn2)c2ccc(F)cc2F)CC1` [Jublia, efinaconazole], the “efficacy for complete clinical cure” value (onychomycosis) is given as at most 18%.
